Like-named read-outs stand apart in the source and are kept apart here.
Assay: Pharmacokinetic assays of compounds after oral gavage administration to rats
Format: in vivo, male SD rats
Design: AUMC(0-t) / AUMC(0-∞): unit not given here
Settings: for AUC as percentage of that of 4-AAM administered at the same molar amount: relative to 4-AAM directly administered
Experimental: Example 13: Pharmacokinetic Assays of Compounds
Instruments: ultra high performance liquid chromatography (Acquity UPLC, Waters) system; triple quadrupole mass spectrometer (Qtrap 5500, Sciex); high-speed refrigerated centrifuge (5430R, Eppendorf).
Chromatography Conditions: Column: Waters BEH C18 2.1×50 mm ([…]); Column Temperature: 45° C.; Mobile Phase: 0.1% aqueous solution of formic acid (A)/acetonitrile; Gradient: see Table 2 below: […]
Mass Spectrometry Condition: Mode: positive ion multiple reaction monitoring (MRM); Curtain Gas: 45 psi; Gas 1: 45 psi; Gas 2: 45 psi; Ion Source Temperature: 500° C.; Ion Source Voltage: 5000 V.
Experimental Animals: male SD rats, weighing 200-240 grams, fasting overnight before experiments.
Each suspension is prepared before administration.
Each sample was placed in an ice bath, centrifuged for plasma collection, frozen and stored.
Plasma Drug Concentration Data and Calculation of Pharmacokinetic Parameters:
Plasma drug concentration data was processed using MultiQuan 3.0 (Sciex), and pharmacokinetic parameters were calculated using the DAS 2.0 software. Plasma drug concentrations were measured in ug/L.

[1] = male SD rats, oral gavage, 30.0 mg/kg, suspension in 0.5% CMC-Na, plasma

Row | SMILES | AUC(0-t) [1] | AUC(0-∞) [1] | AUMC(0-t) [1] | AUMC(0-∞) [1] | CLz/F [1] | Cmax [1] | MRT(0-t) [1] | MRT(0-∞) [1] | Tmax [1] | VRT(0-t) [1] | VRT(0-∞) [1] | t½z [1] | mean retention time (rats, oral gavage) | time to peak concentration (rats, oral gavage) | AUC compared with 4-AAM administered at the same molar amount (rats, oral gavage, in words) | AUC as percentage of that of 4-AAM administered at the same molar amount (rats, oral gavage) | further results
1 | C=CC(=O)N1CCC[C@@H](n2nc(-c3ccc(Oc4ccccc4)cc3)c3c(NC(=O)OCCC)ncnc32)C1 [Compound 2] | 663.0 ng·h/mL | 706.3 ng·h/mL | 2844.3 | 3495.04 | 708 mL/min/kg | 111.0 ng/mL | 4.29 h | 4.9 h | 2.0 h | 7.2 h^2 | 13.5 h^2 | 2.338 h | 4.3 h | 2 h | – | 88% | –
2 | C=CC(=O)N1CCC[C@@H](n2nc(-c3ccc(Oc4ccccc4)cc3)c3c(NC(=O)OCCCC)ncnc32)C1 [Compound 3] | 1366.7 ng·h/mL | 1375.6 ng·h/mL | 3939.9 | 4052.0 | 363 mL/min/kg | 304.4 ng/mL | 2.9 h | 2.9 h | 2.0 h | 3.3 h^2 | 3.8 h^2 | 1.3 h | 2.9 h | 2 h | much greater AUC | 180% | hydrolysis in the blood plasma into the 4-amino active metabolite (4-AAM) (rats, after oral absorption, in words): highest rate
3 | C=CC(=O)N1CCC[C@@H](n2nc(-c3ccc(Oc4ccccc4)cc3)c3c(N)ncnc32)C1 [Compound 4-AAM, 1-[(3R)-3-[4-amino-3-(4-phenoxyphenyl)-1H-pyrazolo[3,4-D]pyrimidin-1-yl]-1-piperidinyl]-2-propen-1-one, reference compound] | – | – | 1316.6 | 2805.6 | – | – | – | – | – | 2.0 h^2 | 47.6 h^2 | 8.9 h | – | – | – | – | AUC(0-inf) (rat, male SD rats, oral gavage, 30.0 mg/kg, suspension in 0.5% CMC-Na, plasma): 822 ng·h/mL; AUC(0-t) (rat, male SD rats, oral gavage, 30.0 mg/kg, suspension in 0.5% CMC-Na, plasma, read-out: AUC(0-t)): 758 ng·h/mL; Cmax (rat, male SD rats, oral gavage, 30.0 mg/kg, suspension in 0.5% CMC-Na, plasma, read-out: Cmax): 312 ng/mL; MRT last (rat, male SD rats, oral gavage, 30.0 mg/kg, suspension in 0.5% CMC-Na, plasma, read-out: MRT(0-t)): 1.7 h; MRT inf (rat, male SD rats, oral gavage, 30.0 mg/kg, suspension in 0.5% CMC-Na, plasma, read-out: MRT(0-∞)): 3.4 h
4 | C=CC(=O)N1CCC[C@@H](n2nc(-c3ccc(Oc4ccccc4)cc3)c3c(NC(=O)OCCCCCC)ncnc32)C1 [Compound 5] | 584.0 ng·h/mL | 587.1 ng·h/mL | 1659.5 | 1696.7 | 852 mL/min/kg | 143.9 ng/mL | 2.8 h | 2.9 h | 2.0 h | 3.0 h^2 | 3.5 h^2 | 1.3 h | – | – | – | – | –

Further lines, with some results ahead:

Row | AUC(0-t) [1] | AUC(0-∞) [1] | AUMC(0-t) [1] | AUMC(0-∞) [1] | CLz/F [1] | Cmax [1] | MRT(0-t) [1] | MRT(0-∞) [1] | Tmax [1] | VRT(0-t) [1] | VRT(0-∞) [1] | t½z [1] | mean retention time (rats, oral gavage) | time to peak concentration (rats, oral gavage) | AUC compared with 4-AAM administered at the same molar amount (rats, oral gavage, in words) | AUC as percentage of that of 4-AAM administered at the same molar amount (rats, oral gavage) | SMILES | further results
5 | 1038.6 ng·h/mL | 1059.6 ng·h/mL | 2950.4 | 3200.9 | 472 mL/min/kg | 257.2 ng/mL | 2.8 h | 3.0 h | 1.0 h | 4.6 h^2 | 6.3 h^2 | 1.7 h | 2.8 h | 1 h | much greater AUC | – | C=CC(=O)N1CCC[C@@H](n2nc(-c3ccc(Oc4ccccc4)cc3)c3c(NC(=O)OC(C)C)ncnc32)C1 [Compound 1] | –
6 | 964.1 ng·h/mL | 976.4 ng·h/mL | 2405.5 | 2586.7 | 512 mL/min/kg | 256.7 ng/mL | 2.5 h | 2.6 h | 2.0 h | 2.9 h^2 | 4.8 h^2 | 2.5 h | 2.5 h | 2 h | much greater AUC | 127% | C=CC(=O)N1CCC[C@@H](n2nc(-c3ccc(Oc4ccccc4)cc3)c3c(NC(=O)OCC(C)C)ncnc32)C1 [Compound 4] | –

From patent US20240360144A1, “PYRAZOLOPYRIMIDINE ESTER COMPOUND” (Shanghai Maius Pharmaceutical Co. Ltd., priority 2021, published 2024)
